Biological target: T1, AT1 Q257A receptor (Rattus norvegicus, UniProt P25095, Q257A)
T1 construct: expressed in transfected cells; host or cells: COS7
T1 sequence (P25095 1-359 Q257A): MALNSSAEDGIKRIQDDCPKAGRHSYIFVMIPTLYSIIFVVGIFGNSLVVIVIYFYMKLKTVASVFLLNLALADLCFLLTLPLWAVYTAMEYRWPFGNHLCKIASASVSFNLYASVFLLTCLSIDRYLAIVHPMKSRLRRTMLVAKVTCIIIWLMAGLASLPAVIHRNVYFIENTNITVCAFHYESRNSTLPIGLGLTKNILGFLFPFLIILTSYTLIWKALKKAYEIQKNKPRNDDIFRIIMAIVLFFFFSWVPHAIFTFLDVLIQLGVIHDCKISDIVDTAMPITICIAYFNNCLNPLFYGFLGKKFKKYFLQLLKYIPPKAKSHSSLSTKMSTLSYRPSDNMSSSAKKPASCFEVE
Experiment: Immunoblotting of ERK 1/2 activation in COS7 cells overexpressing AT1-Q257A receptor
Format: cell-based
Details: 1 µM ligands or 0.1 µM Ang II, 10 min, n = 5, vs. (-)
Protocol: The synthetic rat AT1 receptor gene, which was cloned in the shuttle expression vector pMT-2, was used for expression and mutagenesis, as described previously. […] In the experiments, cells were grown without a cell-growth supplement. To express the AT1 receptor protein, 10 µg of purified plasmid DNA per 10^7 cells was used in the transfection. Wild-type and mutated AT1 receptors were transiently transfected into cells using Lipofectamine 2000 liposomal reagent (Roche Applied Science, Penzberg, Germany). Cells were plated and grown and were 70–90% confluent at the time of transfection. We incubated plasmid DNA (10 µg)–lipid (10 µL) complexes for 5 min at room temperature and added and incubated the complexes with cells for 24 h. We then analyzed the parameters in transfected cells. […] Transfected cells that had been cultured for 48–72 h were harvested. […]
In in vitro studies, ERK 1/2 activation by 1 µM ligands or 0.1 µM Ang II incubated for 10 min was measured using COS7 cells that overexpressed AT1 wild-type and mutant receptors. ERK activity was measured in cells maintained for 18 h in DMEM containing 0.1% serum. […] We homogenized the cells in lysis buffer plus protease inhibitors and determined the protein concentration using the bicinchoninic acid method. […] The signal was independently quantified by digital image analysis (ImageJ, National Institutes of Health, Bethesda, MD, USA).

ERK1/2 activation: did not change ERK1/2 activation
SMILES: CCCc1nc(C(C)(C)O)c(C(=O)O)n1Cc1ccc(-c2ccccc2-c2nnn[nH]2)cc1 [Olmesartan, olmesartan]
